Counter-ions that a name gives are not always drawn. Like-named read-outs stand apart in the source and are kept apart here.
Experiments:
Format in all cases: cell-based
[1] = tested on: L6-myotubes; experiment: Glucose uptake in differentiated L6-myotubes (3H-2-deoxy-glucose); settings: read-out: Biological example 1: glucose uptake, activity compared to that of isoproterenol
Experimental: L6-myoblasts were grown in Dulbecco's Modified Eagle's Medium (DMEM) containing 4.5 g/l glucose supplemented with 10% fetal bovine serum, 2 mM L-Glutamine, 50 U/ml penicillin, 50 1.1g/ml streptomycin and 10 mM HEPES. Cells were plated at 1×10^5 cells per ml in 24-well plates. After reaching 90% confluence the cells were grown in medium containing 2% FBS for 7 days where upon cells differentiated into myotubes. Differentiated L6-myotubes were serum-starved over night in medium containing 0.5% fatty-acid free BSA and stimulated with agonist, final concentration 1×10^−5. After 1 h 40 min cells were washed with warm, glucose free medium or PBS and another portion of agonist was added to glucose free medium. After 20 min the cells were exposed to 50 nM ^3H-2-deoxy-glucose for another 10 min before washed in ice cold glucose free medium or PBS and lysed in 0.2 M NaOH for 1 h in 60° C.

[2] = tested on: Intracellular cAMP levels; experiment: Measurement of intracellular cAMP levels in differentiated L6 cells (alpha screen cAMP kit); settings: Rattus norvegicus, L6, 0.25 h, read-out: Biological example 2: intracellular cAMP levels, activity compared to that of isoproterenol
Experimental: L6-myoblasts were grown in Dulbecco's Modified Eagle's Medium (DMEM) containing 4.5 g/l glucose supplemented with 10% fetal bovine serum, 2 mM L-Glutamine, 50 U/ml penicillin, 50 1.1g/ml streptomycin and 10 mM HEPES. Cells were plated at 1×10^5 cells per ml in 24-well plates. After reaching 90% confluence the cells were grown in medium containing 2% FBS for 7 days where upon cells differentiated into myotubes. Differentiated cells were serum-starved over night and stimulated with agonist, final concentration 1×10^−5 M, for 15 min in stimulation buffer (HBSS supplemented with 1% BSA, 5 mM HEPES and 1 mM IBMX, pH 7,4) The medium was then aspirated and to end the reaction 100 μL of 95% EtOH was added to each well of a 24-well plate and cells were kept in […] over night. The EtOH was let to evaporate and 5001 μof lysis buffer (1% BSA, 5 mM HEPES and 0.3% Tween-20, pH 7,4) was added to each well before put in −80° C. for 30 min and then kept in −20° C. Intracellular cAMP levels were detected using an alpha screen cAMP kit (6760635D from Perkin Elmer). The activity for each compound is compared to that of isoproterenol.

[3] = tested on: L6-myotubes; experiment: Glucose uptake in L6-myotubes in the presence of the β2-antagonist ICI-118,551; settings: differentiated L6-myotubes, ICI-118,551 1×10^−5 M, compound 1×10^−5 M
Experimental: L6-myoblasts were grown in Dulbecco's Modified Eagle's Medium (DMEM) containing 4.5 g/l glucose supplemented with 10% fetal bovine serum, 2 mM L-Glutamine, 50 U/ml penicillin, 50 1.1g/ml streptomycin and 10 mM HEPES. Cells were plated at 1×10^5 cells per ml in 24-well plates. After reaching 90% confluence the cells were grown in medium containing 2% FBS for 7 days where upon cells differentiated into myotubes. Differentiated L6-myotubes were serum-starved overnight in medium containing 0.5% fatty-acid free BSA and were incubated with the β2-adrenergic receptor antagonist ICI-118,551 at a final concentration of 1×10^−5 M for 30 min. The cells were stimulated with a compound of the invention, at a final concentration of 1×10^−5 M. After 1 h 40 min the cells were washed twice with warm, glucose free medium or PBS and additional portions of the compound of the invention and the antagonist were added. After 20 min the cells were exposed to 50 nM ^3H-2-deoxyglucose for 10 min before washed with ice cold glucose free medium or PBS three times and lysed with 0.2 M NaOH, 400 μL/well, for 1 h at 60° C. The cell lysate was mixed with 4 mL scintillation buffer (Emulsifier Safe, Perkin Elmer) and the radioactivity was detected in a β-counter (Tri-Carb 4810TR, Perkin Elmer). The activity for each compound is compared to that of isoproterenol.

[4] = differentiated L6-myotubes, agonist final concentration 1×10^−5, 3H-2-deoxy-glucose uptake
[5] = differentiated cells, agonist final concentration 1×10^−5 M, 15 min

| Compound | Emax at 10 µM [1, 4] | Emax at 10 µM [2, 5] | Biological example 3: glucose uptake in the presence of the β2-antagonist ICI-118,551, activity compared to that of isoproterenol [3] | Emax at 10 µM [1] | Emax at 10 µM [2] |
| --- | --- | --- | --- | --- | --- |
| CC12CCC([C@H](O)c3cccc(F)c3)(CC1)N2 [Example 1, (R)-(3-Fluorophenyl)(4-methyl-7-azabicyclo[2.2.1]heptan-1-yl)methanol hydrochloride] | > 75% | < 25% | − (if it less than 25% it is denoted with) |  |  |
| CC12CCC([C@@H](O)c3cccc(F)c3)(CC1)N2 [Example 2, (S)-(3-Fluorophenyl)(4-methyl-7-azabicyclo[2.2.1]heptan-1-yl)methanol hydrochloride] | > 75% | < 25% | − (if it less than 25% it is denoted with) |  |  |
| CC12CCC([C@H](O)c3ccccc3F)(CC1)N2 [Example 3, (R)-(2-Fluorophenyl)(4-methyl-7-azabicyclo[2.2.1]heptan-1-yl)methanol hydrochloride] | 50 to 75% | < 25% |  |  |  |
| CC12CCC([C@@H](O)c3ccccc3F)(CC1)N2 [Example 4, (S)-(2-Fluorophenyl)(4-methyl-7-azabicyclo[2.2.1]heptan-1-yl)methanol hydrochloride] | 25 to 50% | < 25% |  |  |  |
| CC12CCC([C@H](O)c3cccc(Cl)c3)(CC1)N2 [Example 5, (R)-(3-Chlorophenyl)(4-methyl-7-azabicyclo[2.2.1]heptan-1-yl)methanol hydrochloride] | > 75% | < 25% |  |  |  |
| CC12CCC([C@@H](O)c3cccc(Cl)c3)(CC1)N2 [Example 6, (S)-(3-Chlorophenyl)(4-methyl-7-azabicyclo[2.2.1]heptan-1-yl)methanol hydrochloride] | 25 to 50% | < 25% |  |  |  |
| CC12CCC([C@H](O)c3ccccc3Cl)(CC1)N2 [Example 7, (R)-(2-Chlorophenyl)(4-methyl-7-azabicyclo[2.2.1]heptan-1-yl)methanol hydrochloride] | > 75% | < 25% |  |  |  |
| CC12CCC([C@@H](O)c3ccccc3Cl)(CC1)N2 [Example 8, (5)-(2-Chlorophenyl)(4-methyl-7-azabicyclo[2.2.1]heptan-1-yl)methanol hydrochloride] | 25 to 50% | < 25% |  |  |  |
| CC12CCC([C@H](O)c3cncc(F)c3)(CC1)N2 [Example 9, (R)-(3-fluoropyridin-4-yl)(4-methyl-7-azabicydo[2.2.1]heptan-1-yl)-methanol] | > 75% | < 25% |  |  |  |
| CC12CCC([C@@H](O)c3cncc(F)c3)(CC1)N2 [Example 10, (S)-(3-fluoropyridin-4-yl)(4-methyl-7-azabicydo[2.2.1]heptan-1-yl)-methanol] | 50 to 75% | < 25% |  |  |  |
| CC12CCC([C@H](O)c3ccncc3F)(CC1)N2 [Example 11, (R)-(3-Fluoropyridin-4-yl)(4-methyl-7-azabicyclo[2.2.1]heptan-1-yl)-methanol] | < 25% | < 25% |  |  |  |
| CC12CCC([C@@H](O)c3ccncc3F)(CC1)N2 [Example 12, (S)-(3-Fluoropyridin-4-yl)(4-methyl-7-azabicydo[2.2.1]heptan-1-yl)-methanol] | < 25% | < 25% |  |  |  |
| CCCC12CCC([C@H](O)c3cccc(F)c3)(CC1)N2 [Example 13, (R)-(3-Fluorophenyl)(4-propyl-7-azabicyclo[2.2.1]heptan-1-yl)methanol hydrochloride] | 50 to 75% | 25 to 50% |  |  |  |
| CCCC12CCC([C@@H](O)c3cccc(F)c3)(CC1)N2 [Example 14, (S)-(3-Fluorophenyl)(4-propyl-7-azabicyclo[2.2.1]heptan-1-yl)methanol hydrochloride] | < 25% | < 25% |  |  |  |
| COCC12CCC([C@@H](O)c3cccc(F)c3)(CC1)N2 [Example 15, (S)-(3-Fluorophenyl)(4-(methoxymethyl)-7-azabicyclo[2.2.1]heptan-1-yl)methanol hydrochloride] |  |  |  | 50 to 75% | < 25% |
| COCC12CCC([C@H](O)c3cccc(F)c3)(CC1)N2 [Example 16, (R)-(3-Fluorophenyl)(4-(methoxymethyl)-7-azabicyclo[2.2.1]heptan-1-yl)methanol hydrochloride] |  |  | − (if it less than 25% it is denoted with) | > 75% | < 25% |
| O[C@@H](c1cccc(F)c1)C12CCC(COc3ccc(Cl)cc3)(CC1)N2 [Example 17, (S)-(4-((4-Chlorophenoxy)methyl)-7-azabicyclo[2.2.1]heptan-1-yl)(3-fluorophenyl)methanol] | 50 to 75% | < 25% |  |  |  |
| O[C@H](c1cccc(F)c1)C12CCC(COc3ccc(Cl)cc3)(CC1)N2 [Example 18, (R)-(4-((4-Chlorophenoxy)methyl)-7-azabicyclo[2.2.1]heptan-1-yl) (3-fluorophenyl)methanol] | > 75% | < 25% |  |  |  |
